According to patent US12527796B2, “[6R]-MTHF—an efficient folate alternative in 5-fluorouracil based chemotherapy” (Isofol Medical AB, priority 2017, dated 2026):

Assays:
Thymidylate Synthase = Thymidylate Synthase (Lacticaseibacillus casei, UniProt P00469); conditions: cited from earlier work
colorectal cancer = conditions: Phase IIb; cited from earlier work
pancreas cancer = conditions: combined with 5-FU; cited from earlier work
[1] = tested on: metastatic colorectal carcinoma; conditions: modulation of 5-FU with LV; cited from earlier work
[2] = tested on: stage IV colorectal cancer; assay: ISO-CC-005 open-label Phase I/II dose cohort trial of [6R]-MTHF with 5-FU (response per RECIST 1.1, adverse events); type: in vivo, human
Text: As used herein, the term ORR shall refer to the Objective Response Rate, ie. the proportion of patients with reduction in tumor burden of a predefined amount. […] (Note: the appearance of one or more new lesions is also considered progression). Stable Disease (SD): • Neither sufficient shrinkage to qualify for PR nor sufficient increase to qualify for PD, taking as reference the smallest sum diameters while on study. ([…], Schwartz […], Ford R, et al. New response evaluation criteria in solid tumours: revised RECIST guideline (version 1.1). Eur J Cancer. 2009 January; 45(2):228-47) […] A maximum of 63 Stage IV CRC patients eligible for 1st, 2nd or 3rd line treatment are planned to be enrolled in this study disposed as follows: three to six patients in each dose cohort, and three additional patients in one dose cohort in each treatment arm according to the following study design (Table 1). [table] […] Dosing: Rapid i.v. bolus injections at a fixed dose of 30, 60, 120 or 240 mg/m^2, will be administered approximately 30 minutes after administration of 5-FU on Day 1 and Day 2 in each treatment cycle in all ^dose cohorts of the study (i.e. regardless of treatment arm). The regimen will be repeated every second week for up to eight (8) cycles, i.e. up to sixteen (16) weeks. 5-FU (5-fluorouracil) is formulated as injection solution. Dosing: 5-FU will be administered as i.v. bolus injections on Day 1 and Day 2 in each treatment cycle. In Arm #2 and Arm #3 of the study, 5-FU will be administered approximately 60 minutes after start of Oxaliplatin or Irinotecan administration, respectively (see description below). The regimen will be repeated every second week for up to eight (8) cycles, i.e. up to sixteen (16) weeks. ISO-CC-005 is an open clinical phase I/II tolerability and dose definition study designed to evaluate safety and define the [6R]-MTHF dose for continued development. It evaluates four doses of [6R]-MTHF in combination with 5-FU with or without the different combinations of irinotecan or oxaliplatin and bevacizumab in patients with metastatic Colorectal Cancer using 4 different protocols: • MOD+5-FU: [6R]-MTHF in combination with 5-FU only, similar to Nordic FLV protocol • MOD+[…] in combination with 5-FU and Irinotecan, similar to Nordic FLIRI protocol • MOD+FLOX: [6R]-MTHF in combination with 5-FU and Oxaliplatin, similar to Nordic FLOX protocol • MOFOX: [6R]-MTHF in combination with 5-FU and Oxaliplatin, similar to FOLFOX-6 protocol The patients belong to several treatment lines ranging from first to third and even fifth lines. The results of the study are regularly assessed, and the results from the group of patients undergoing 1st line treatment and partially the group of patients undergoing 2nd, 3rd and 5th line treatment have previously (in August 2017) and again (December 2017) been analyzed. The clinical study is still ongoing. […] (see FIG. 2). Four (4) 1st line patients could not be followed for the additional 8 weeks' treatment due to study protocol formalities. No further 1st line patients had been analysed at this point.

[3] = 1st line patients, 8 weeks' treatment
[4] = 30 patients, 1st, 2nd, 3rd and 5th line, after 8 weeks' treatment

Chain of Thymidylate Synthase (P00469 whole entry): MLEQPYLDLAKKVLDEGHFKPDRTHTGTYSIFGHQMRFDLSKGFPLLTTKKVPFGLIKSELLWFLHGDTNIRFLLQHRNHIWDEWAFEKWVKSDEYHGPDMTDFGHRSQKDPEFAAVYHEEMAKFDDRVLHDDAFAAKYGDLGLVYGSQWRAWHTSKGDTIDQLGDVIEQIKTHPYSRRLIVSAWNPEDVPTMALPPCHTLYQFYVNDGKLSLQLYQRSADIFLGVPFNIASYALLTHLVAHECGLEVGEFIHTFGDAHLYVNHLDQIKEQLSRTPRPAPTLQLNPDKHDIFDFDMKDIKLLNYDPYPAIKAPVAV

For `Nc1nc2c(c(=O)[nH]1)N1CN(c3ccc(C(=O)N[C@@H](CCC(=O)O)C(=O)O)cc3)C[C@@H]1CN2` (single isomer, unassigned) [[6S]-isomer], the “effect on the natural [6R]-isomer as co-substrate for TS” value (Thymidylate Synthase) is listed as “partial competitive inhibitor”.

In the case of `Nc1nc2c(c(=O)[nH]1)N1CN(c3ccc(C(=O)N[C@@H](CCC(=O)[O-])C(=O)[O-])cc3)CC1CN2.[Ca+2]` (stereo partly drawn) [CoFactor, [6R,S]-5,10-methylene-THF Ca salt], the “differences between the study arms (CoFactor vs leucovorin) with regard to efficacy or safety” value (colorectal cancer) is given as “no significant differences” and the “patients with clinical benefit, defined as stable disease or tumor response” value (pancreas cancer) is given as 40%.

For `Nc1nc2c(c(=O)[nH]1)N(C=O)C(CNc1ccc(C(=O)N[C@@H](CCC(=O)O)C(=O)O)cc1)CN2` (stereo partly drawn) [Leucovorin], the “time-to-progression (TTP) of disease” value [1] is listed as “prolongation of the time-to-progression (TTP)”.

In the case of `Nc1nc2c(c(=O)[nH]1)N1CN(c3ccc(C(=O)N[C@@H](CCC(=O)O)C(=O)O)cc3)C[C@H]1CN2` [[6R]-MTHF, [6R]-5,10-methylenetetrahydrofolate], the ORR [2, 3] is reported as 50%, the “patients with clinical benefit, defined as stable disease or partial response” value [2, 3] is reported as 100% and the “patients showing clinical benefit” value ([2]; 1st line patients, 16 weeks of treatment) is reported as 100%. For the same compound, the “patients with clinical benefit, defined as stable disease or partial response” value ([2]; 2nd, 3rd or 5th line patients (25), after 8 weeks' treatment) was 64%, the “patients with partial response” value [2, 4] was 27% and the “patients with progressive disease” value [2, 4] was 13%. For the same compound, the “patients with stable disease” value [2, 4] was 60%, the “clinical benefit, defined as stable disease or tumor response, treated patients” value ([2]; [6R]-MTHF combined with 5-FU) was greater than 90% and the “ORRs (objective response rates)” value ([2]; colorectal cancer patients, initial 5-FU followed by [6R]-MTHF) was 50-60%. For the same compound, the “progression in the cancer after the initial 8 weeks' treatment” value ([2]; eight 1st line patients, 16 weeks of treatment) was “no progression”, the “toxicity of 5-FU when combined with [6R]-MTHF, compared to 5-FU with other folate adjuvants” value ([2]; in vivo) was “reduced” and the “patients showing Partial Response at 16 weeks” value ([2]; of eight 1st line patients) was 5 patients. For the same compound, the “patients showing Stable Disease at 16 weeks” value ([2]; of eight 1st line patients) was 3 patients and the “treated patients with at least a 25% decrease in the sum of the diameters of target lesions” value ([2]; reference baseline sum diameters, with 5-FU) was roughly 65%.
